The term IC50 denotes the concentration at which inhibition is half-maximal. Lower therefore signals greater potency in that assay.

The values below come from patent US10442763B2, “EBNA1 inhibitors and methods using same” (priority 2015, dated 2019).

In the assay the target is T1, His-EBNA1 (DNA binding domain of EBNA1, amino acids 459-607) (Epstein-Barr virus, UniProt P03211).
T1 construct: made in house; host or cells: E. coli
T1 sequence (P03211 459-607): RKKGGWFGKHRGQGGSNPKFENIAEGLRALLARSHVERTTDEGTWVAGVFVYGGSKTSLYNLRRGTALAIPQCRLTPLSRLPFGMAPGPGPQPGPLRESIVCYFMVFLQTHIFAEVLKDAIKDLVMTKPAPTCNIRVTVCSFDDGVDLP
Nature of the assay: Inhibition of 5'-biotin-oPL4624 binding to His-EBNA1 using Alpha Screen technology. In short, it runs like this:
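AlphaScreen with 15 nM E. coli-expressed His-EBNA1 (aa 459-607), 0.2 nM biotinylated oPL4624 DNA and 5 μg/mL donor and acceptor beads in 25 mM Tris pH 7.2, 160 mM NaCl, 1 mM MgCl2; compound 3.2 nM–100 μM final. Read after 2 h at RT; inhibition normalised to no-EBNA1 wells, one-site dose-response fit.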
With `Nc1ccc(C#Cc2cccc(C(=O)O)c2-c2ccc3cc[nH]c3c2)cc1S(N)(=O)=O` [Entry 123], the IC50 fell in the range of 10 to 100 µM.
The value for `NC(=O)c1ccc(OCc2ccc(C#Cc3cccc(C(=O)O)c3-c3ccc4cc[nH]c4c3)cc2)cc1` [Entry 86] was 1 to 10 µM; that for `O=C(O)c1cccc(C#Cc2ccc(-c3cnco3)cc2)c1-c1ccc2cc[nH]c2c1` [Entry 43] was 1 to 10 µM; that for `O=C(O)c1cccc(C#Cc2ccc(COc3ccccc3F)cc2)c1-c1ccc2cc[nH]c2c1` [Entry 89] was 1 to 10 µM.
Regarding `O=C(O)c1cccc(C#Cc2ccc(-c3ccc(=O)[nH]n3)cc2)c1-c1ccc2cc[nH]c2c1` [Entry 44], the IC50 fell in the range of 1 to 10 µM.
As for `N#Cc1cc(C#Cc2cccc(C(=O)O)c2-c2ccc3cc[nH]c3c2)ccc1OC1CCOCC1` [Entry 103], the half-maximal inhibitory concentration (IC50) lay in the range of 1 to 10 µM.
As for `O=C(O)c1cccc(C#Cc2ccc(COc3cccc(Cl)c3)cc2)c1-c1ccc2cc[nH]c2c1` [Entry 91], the figure is 1 to 10 µM; as for `O=C(O)c1cccc(C#Cc2ccc3[nH]c(CN4CCS(=O)(=O)CC4)nc(=O)c3c2)c1-c1ccc2cc[nH]c2c1` [Entry 134], 1 to 10 µM; as for `CC(=O)N1CCc2cc(C#Cc3cccc(C(=O)O)c3-c3ccc4cc[nH]c4c3)ccc2C1` [Entry 78], 1 to 10 µM.
As for `O=C(O)c1cccc(C#Cc2cc3ccn(CC4CCS(=O)(=O)CC4)c3cc2F)c1-c1ccc2cc[nH]c2c1` [Entry 38], the figure is 1 to 10 µM; as for `O=C(Nc1ccc(N2CCS(=O)(=O)CC2)cc1)c1cccc(C#Cc2cccc(C(=O)O)c2-c2ccc3cc[nH]c3c2)c1` [Entry 138], 1 to 10 µM.
On to `O=C(O)c1cccc(C#Cc2ccc3ccn(CCN4CCOCC4)c3c2)c1-c1ccc2cc[nH]c2c1` [Entry 1], for which the IC50 lay within 10 to 100 µM.
As for `COC1CCN(Cc2ccc(C#Cc3cccc(C(=O)O)c3-c3ccc4cc[nH]c4c3)cc2)C1` (stereo not shown) [Entry 163], the figure is 10 to 100 µM; as for `Nc1nc2c(s1)C[C@@H](NCc1ccc(C#Cc3cccc(C(=O)O)c3-c3ccc4cc[nH]c4c3)cc1)CC2` [Entry 174], 1 to 10 µM; as for `O=C1CCC(NC(=O)c2ccc(C#Cc3cccc(C(=O)O)c3-c3ccc4cc[nH]c4c3)cc2)CC1` [Entry 199], less than 1 µM.
The value for `CS(=O)(=O)N1CCN(Cc2ccc(C#Cc3cccc(C(=O)O)c3-c3ccc4[nH]ccc4c3)cc2)CC1` [Entry 179] was 10 to 100 µM; that for `CN1CCN(Cc2ccc(C#Cc3cccc(C(=O)O)c3-c3cnc4[nH]ccc4c3)cc2)CC1` [Entry 176] was 10 to 100 µM; that for `CS(=O)(=O)N1CCC(Cn2ccc3cc(C#Cc4cccc(C(=O)O)c4-c4ccc5cc[nH]c5c4)cnc32)CC1` [Entry 20] was 1 to 10 µM.
With `O=C(O)c1cccc(C#Cc2ccc(COc3cncnc3)cc2)c1-c1ccc2cc[nH]c2c1` [Entry 96], the half-inhibitory concentration (IC50) lay in the range of 1 to 10 µM.
As for `O=C(O)c1cccc(C#Cc2ccc(OC3CCOCC3)cc2)c1-c1cnc2[nH]ccc2c1` [Entry 142], the figure is 10 to 100 µM.
The value for `O=C(O)c1cccc(C#Cc2ccc3c(CN4CCOCC4)c[nH]c3c2)c1-c1ccc2cc[nH]c2c1` [Entry 30] was 10 to 100 µM; that for `O=C(O)c1cccc(C#Cc2ccc(CN3CCC(O)CC3)cc2)c1-c1ccc2cc[nH]c2c1` [Entry 154] was 10 to 100 µM; that for `CS(=O)(=O)N1CCN(Cc2ccc(C#Cc3cccc(C(=O)O)c3-c3cnc4[nH]ccc4c3)cc2)CC1` [Entry 180] was 1 to 10 µM.
The value for `COc1cc(-c2c(C#Cc3ccccc3)cccc2C(=O)O)cc2[nH]ccc12` [Entry 119] was 1 to 10 µM; that for `COC1CCN(Cc2ccc(C#Cc3cccc(C(=O)O)c3-c3ccc4cc[nH]c4c3)cc2)CC1` [Entry 155] was 10 to 100 µM.
